# Earlier results as cited in patent US11013684B2, “Body fluid expanders comprising N-substituted aminosulfonic acid buffers” (AQIX, Ltd., priority 2007, dated 2021).
# Key:
# [1] = for −ΔpKa/° C.: aqueous solution, 20° C.
# [2] = test system: cultured mammalian cells; details: long term studies
−ΔpKa/° C. [1],pKa @ 20° C. ([1]; aqueous solution at 20° C.),Structure (SMILES),toxicity to cultured mammalian cells [2]
0.016,–,"O=S(=O)(O)CCN(CCO)CCO [BES, N,N-bis (2-hydroxyethyl)-2-aminoethanesulfonic acid]",non-toxic
0.018,–,"O=C(O)CN(CCO)CCO [BICINE, N,N-bis (2-hydroxyethyl) glycine]",–
0.009,6.80,"O=S(=O)(O)CCN1CCN(CCS(=O)(=O)O)CC1 [PIPES, piperazine-N,N′-bis(2-ethanesulfonic acid)]",–
0.021,–,"O=C(O)CNC(CO)(CO)CO [TRICINE, N-tris(hydroxymethyl) methylglycine]",–
